Where a name gives a salt, the structure may show the parent alone.
Tests used:
HEPG2 cells = assay: Total cellular NAD+ level after MNNG-induced depletion (NAD/NADH Glo Assay), HEPG2 cells; assay type: cell-based; conditions: HEPG2, MNNG 100 μM, compound 1 mM
Jurkat cells = assay: Total cellular NAD+ level after MNNG-induced depletion (NAD/NADH Glo Assay), Jurkat cells; assay type: cell-based; conditions: for % NAD+ Repletion: Jurkat, MNNG 100 μM, compound 1 mM; for increase of NAD+ level: Jurkat cells, 100 μM MNNG 30 min

| SMILES | % NAD+ Repletion (HEPG2 cells) [%] | % NAD+ Repletion (Jurkat cells) [%] | increase of NAD+ level (Jurkat cells; then NR 100 μM without olaparib for 3.5 hr) [%] | increase of NAD+ level (Jurkat cells; then olaparib 5 nM without NR for 3.5 hr) [%] |
| --- | --- | --- | --- | --- |
| NC(=O)c1ccc[n+]([C@@H]2O[C@H](COC(=O)CCC(=O)O)[C@@H](O)[C@H]2O)c1 [MP-42, 3-Carboxamide-1-((2R,3R,4S,5R)-5-(((3-carboxypropanoyl)oxy)methyl)-3,4-dihydroxytetrahydrofuran-2-yl)pyridin-1-ium trifluoroacetate] | 23.7 | 8.2 |  |  |
| COC(=O)CCC(=O)OC[C@H]1O[C@@H]([n+]2cccc(C(N)=O)c2)[C@H](O)[C@@H]1O [MP-43, 3-Carboxamide-1-((2R,3R,4S,5R)-3,4-dihydroxy-5-(((4-methoxy-4-oxobutanoyl)oxy)methyl)tetrahydrofuran-2-yl)pyridin-1-ium trifluoroacetate] | 31.1 | 12.9 |  |  |
| NC(=O)c1ccc[n+]([C@@H]2O[C@H](CO)[C@@H](O)[C@H]2O)c1 [NR, nicotinamide riboside] |  |  | 43 |  |
| O=C(c1cc(Cc2n[nH]c(=O)c3ccccc23)ccc1F)N1CCN(C(=O)C2CC2)CC1 [olaparib, reference compound] |  |  |  | 8 |

— patent US11286274B2, “Nicotinamide riboside derivatives and their uses” (MitoPower LLC, priority 2017, dated 2022)
